{"source": "patent US8809270B2", "about": "“Method for reducing cardiovascular morbidity and mortality in prediaetic patients and patients with type 2 diabetes” (priority 2003, dated 2014)", "key": {"[1]": {"tested_on": "type 2 diabetic patients already treated with other oral antidiabetic drugs", "experiment": "Study 4014: lipid data, LANTUS versus rosiglitazone", "format": "in vivo, human", "design": "Triglycerides % reduction from baseline / Triglycerides % reduction from baseline, LANTUS-AVANDIA / Non-HDL Cholesterol Total % reduction from baseline: concentration or dose not given beside the values; Triglycerides Baseline / Triglycerides Endpoint: unit not given beside the values", "conditions": "for Triglycerides % reduction from baseline, LANTUS-AVANDIA / Triglycerides change at endpoint, LANTUS-AVANDIA: LANTUS minus AVANDIA"}, "[2]": {"tested_on": "people with impaired glucose tolerance (IGT) or impaired fasting glucose (IFG), mild type 2 diabetes", "experiment": "Study HOE901/1021: fasting and 8-point blood glucose profiles, bedtime dose titration", "format": "in vivo, human", "source_text": "Study HOE901/1021 was a randomized, single-blind (pharmacist-unblinded), inpatient, dose-titration study designed to examine the safety and efficacy of HOE901 given once a day subcutaneously at bedtime in a novel population: people with impaired glucose tolerance (IGT) or impaired fasting glucose (IFG). It was conceived as a pilot study for a large international trial of HOE901 in a dysglycemic population of IGT, IFG, and early type 2 diabetes in order to investigate dosing in the prediabetic (IFG/IGT) population for the first time. Of special interest was the incidence of hypoglycemia during the study.\n(§1) The study was conducted at three centers in the US. After screening tests, including fasting plasma glucose (FPG) and post prandial plasma glucose (PPG; two hours following a 75 g oral glucose load) for classification as IGT, IFG, diabetic, or normal glucose tolerance (NGT), and after satisfying other inclusion criteria including the ability to perform moderate exercise on a stationary bicycle, subjects were admitted to an inpatient study center. They were confined there for the next 15 days, during which time they were randomly assigned to receive either HOE901 once per day subcutaneously in the evening, or matching placebo (saline) injections in a 3:1 randomization (HOE901:placebo). Baseline assessments included a 5-point (before each meal, bedtime, and 3 AM) and 8-point (5-point plus readings 2 hours after each meal) blood glucose profile on separate days, and 15 minutes of exercise on a stationary bicycle at a level of exertion of “somewhat hard” on the Borg scale with blood glucose values monitored during and for 3 hours following the exercise. Each subject received a 25 kCal/kg diet while confined in the study center. Capillary whole blood glucose values were recorded on HemoCue devices. Episodes of hypoglycemia (blood glucose 50 mg/dL [2.8 mM] or symptoms with blood glucose 65 mg/dL [3.6 mM]) were recorded.\nOnce randomized, subjects' bedtime doses of study drug were titrated to achieve a fasting blood glucose (FBG) of 80-95 mg/dL [4.4 mM-5.3 mM]. Dose increases were based on FBG values and were performed every 2 days. Subjects remained at the site until the end of the confinement period, regardless of when target FBG levels were achieved. Five-point blood glucose profiles were performed every other day, with 8-point blood glucose profiles performed on alternate days. At endpoint all baseline procedures, including an 8-point blood glucose profile, and an exercise assessment, were repeated."}, "[3]": {"conditions": "in vivo; cited from earlier work"}, "[4]": {"experiment": "Post-marketing surveillance safety database", "design": "species or system human", "source_text": "(§2) Treatment with Lantus® LANTUS (insulin glargine) insulin offers the possibility of a smooth, daylong, blood insulin profile without a definite peak that can be finely titrated to lower subjects' FPG in a durable manner, while minimizing the risk of hypoglycemia at other times of day."}, "[5]": {"tested_on": "individuals with IGT, IFG, or mild untreated type 2 diabetes", "experiment": "Study HOE901/1021: blood glucose response to 15-minute stationary bicycle exercise", "design": "species or system human", "conditions": "in vivo", "protocol": "The study was conducted at three centers in the US. After screening tests, including fasting plasma glucose (FPG) and post prandial plasma glucose (PPG; two hours following a 75 g oral glucose load) for classification as IGT, IFG, diabetic, or normal glucose tolerance (NGT), and after satisfying other inclusion criteria including the ability to perform moderate exercise on a stationary bicycle, subjects were admitted to an inpatient study center. They were confined there for the next 15 days, during which time they were randomly assigned to receive either HOE901 once per day subcutaneously in the evening, or matching placebo (saline) injections in a 3:1 randomization (HOE901:placebo). Baseline assessments included a 5-point (before each meal, bedtime, and 3 AM) and 8-point (5-point plus readings 2 hours after each meal) blood glucose profile on separate days, and 15 minutes of exercise on a stationary bicycle at a level of exertion of “somewhat hard” on the Borg scale with blood glucose values monitored during and for 3 hours following the exercise. Each subject received a 25 kCal/kg diet while confined in the study center. Capillary whole blood glucose values were recorded on HemoCue devices. Episodes of hypoglycemia (blood glucose 50 mg/dL [2.8 mM] or symptoms with blood glucose 65 mg/dL [3.6 mM]) were recorded. […]"}, "[6]": {"tested_on": "individuals with IGT, IFG, or mild untreated type 2 diabetes", "experiment": "Study HOE901/1021: adverse events and hypoglycemia", "format": "in vivo, human", "protocol": "as §1\nTreatment-emergent adverse events (TEAEs) occurred in 10 subjects in the HOE901 group (16 events) vs. 2 in the placebo group (5 events). Each event occurred in only 1 individual except for headache, which occurred in 3 HOE901 subjects. Only 2 HOE901 subjects and 1 placebo subject had events that were considered by investigators as possibly related to study drug. The HOE901 events were 2 episodes of headache, and one of hypoglycemia. The two headaches occurred in subjects who had hypoglycemic events on the same days and at approximately the same time as the headaches. […] Subject 3011 (who reported dizziness as an adverse event during screening) was removed from the study by the sponsor prior to receiving any study drug dose because of hypoglycemia that occurred during screening.\nOnly mild hypoglycemia occurred in 4 out of 16 subjects treated with HOE901 in this study. These hypoglycemic events generally occurred before lunch or supper, and resolved promptly with oral caloric intake. No episodes of hypoglycemia occurred in relation to exercise. Although the calorie-restricted diet subjects consumed during this study doubtless played a role in the occurrence of these events, the diet was typical in size for what is recommended to these frequently overweight individuals. […] Hypoglycemia can occur, but is manageable not related to exercise, and detectable with the aid of home glucose monitoring."}, "[7]": {"experiment": "Multiple-dose pharmacokinetic study (Study 1020)", "format": "in vivo", "conditions": "2 days of treatment", "source_text": "as §2"}}, "data": [{"substance": "insulin glargine [LANTUS]", "values": [{"measurement": "HDL Baseline", "setting": "[1]; TG baseline range 200-500", "result": 38}, {"measurement": "HDL Endpoint", "setting": "[1]; TG baseline range 200-500", "result": 40}, {"measurement": "LDL Baseline", "setting": "[1]; TG baseline range 200-500", "result": 115}, {"measurement": "LDL Endpoint", "setting": "[1]; TG baseline range 200-500", "result": 111}, {"measurement": "Non-HDL Cholesterol Total Baseline", "setting": "[1]; TG baseline range 200-500", "result": 168}, {"measurement": "Non-HDL Cholesterol Total Endpoint", "setting": "[1]; TG baseline range 200-500", "result": 152}, {"measurement": "Triglycerides % reduction from baseline", "setting": "[1]; TG baseline range 200-500", "result": 18, "unit": "%"}, {"measurement": "Triglycerides Baseline", "setting": "[1]; TG baseline range 200-500", "result": 285}, {"measurement": "Triglycerides Endpoint", "setting": "[1]; TG baseline range 200-500", "result": 234}, {"measurement": "Triglycerides % reduction from baseline, LANTUS-AVANDIA", "setting": "[1]; TG baseline range 200-500", "result": 18, "unit": "%"}, {"measurement": "Triglycerides change at endpoint, LANTUS-AVANDIA", "setting": "[1]; TG baseline range 200-500", "result": 47.7}, {"measurement": "HDL Baseline", "setting": "[1]; TG baseline range 300-500", "result": 32}, {"measurement": "HDL Endpoint", "setting": "[1]; TG baseline range 300-500", "result": 34}, {"measurement": "Non-HDL Cholesterol Total % reduction from baseline", "setting": "[1]; TG baseline range 300-500", "result": 4, "unit": "%"}, {"measurement": "Non-HDL Cholesterol Total Baseline", "setting": "[1]; TG baseline range 300-500", "result": 156}, {"measurement": "Non-HDL Cholesterol Total Endpoint", "setting": "[1]; TG baseline range 300-500", "result": 150}, {"measurement": "Triglycerides % reduction from baseline", "setting": "[1]; TG baseline range 300-500", "result": 27, "unit": "%"}, {"measurement": "Triglycerides Baseline", "setting": "[1]; TG baseline range 300-500", "result": 380}, {"measurement": "Triglycerides Endpoint", "setting": "[1]; TG baseline range 300-500", "result": 277}, {"measurement": "Triglycerides % reduction from baseline, LANTUS-AVANDIA", "setting": "[1]; TG baseline range 300-500", "result": 18, "unit": "%"}, {"measurement": "Triglycerides change at endpoint, LANTUS-AVANDIA", "setting": "[1]; TG baseline range 300-500", "result": 68.5}, {"measurement": "HDL Baseline", "setting": "[1]; TG baseline range 500-1000", "result": 28}, {"measurement": "HDL Endpoint", "setting": "[1]; TG baseline range 500-1000", "result": 29}, {"measurement": "Non-HDL Cholesterol Total Baseline", "setting": "[1]; TG baseline range 500-1000", "result": 178}, {"measurement": "Non-HDL Cholesterol Total Endpoint", "setting": "[1]; TG baseline range 500-1000", "result": 153}, {"measurement": "Triglycerides Baseline", "setting": "[1]; TG baseline range 500-1000", "result": 817}, {"measurement": "Triglycerides Endpoint", "setting": "[1]; TG baseline range 500-1000", "result": 494}, {"measurement": "Mean FBG", "setting": "[2]; Day 12 (endpoint)", "result": 85.6, "unit": "mg/dL"}, {"measurement": "Mean FBG", "setting": "[2]; Day −1 (baseline)", "result": 98.1, "unit": "mg/dL"}, {"measurement": "reduction in mean daylong blood glucose", "setting": "[2]; Day −1 to Day 12", "result": 8.8, "unit": "mg/dL"}, {"measurement": "subjects who had reached an FPG of 100 mg/dL", "setting": "[2]; by Day 12", "result": "All but 2"}, {"measurement": "subjects who had reached the FBG target of 95 mg/dL or less", "setting": "[2]; by Day 12", "result": "all but 4"}, {"measurement": "duration of action", "setting": "[3]", "result": "up to 24 hour"}, {"measurement": "incidence of hypoglycemia or unexpected adverse reactions compared to other marketed insulin preparations", "setting": "[4]", "result": "no increased incidence of hypoglycemia or unexpected adverse reactions"}, {"measurement": "hypoglycemic events during exercise", "setting": "[5]", "result": "no hypoglycemic events"}, {"measurement": "Treatment-emergent adverse events (TEAEs), events", "setting": "[6]; in vivo", "result": 16, "unit": "events"}, {"measurement": "Treatment-emergent adverse events (TEAEs), subjects", "setting": "[6]; in vivo", "result": 10, "unit": "subjects"}, {"measurement": "headache", "setting": "[6]; in vivo", "result": 3, "unit": "subjects"}, {"measurement": "safety and tolerability", "setting": "[6]; in vivo", "result": "safe and well tolerated"}, {"measurement": "serious adverse events", "setting": "[6]; in vivo", "result": "no serious adverse events"}, {"measurement": "subjects with events considered by investigators as possibly related to study drug", "setting": "[6]; in vivo", "result": 2, "unit": "subjects"}, {"measurement": "mild hypoglycemia", "setting": "[6]; out of 16 subjects treated", "result": 4, "unit": "subjects"}, {"measurement": "doses to reach steady-state levels", "setting": "[7]", "result": 2, "unit": "doses"}]}]}
